Consider 2 compounds from patent US8324422B2, “Enhydrazone esters for treating asthma, allergy and inflammation” (Kuwait University, priority 2008, dated 2012).

For data set [1], the system named is mouse peritoneal macrophages. Briefly: viability of macrophages after overnight incubation. Format: cell-based.
Data set [2] relates to mouse peritoneal macrophages. Briefly: LPS-stimulated release of TNF-α from mouse peritoneal macrophages. Format: cell-based. As to conditions: for IC50: LPS 1 μg/mL for 18 hours, 30 min pre-treatment, ELISA, read-out: concentration that achieved 50% inhibition of TNF-α release. The procedure: The antiinflammatory effect of CEE-1 and CEE-2 was tested on LPS-stimulated release of tumor necrotic factor-α (TNF-α) from mouse peritoneal macrophages. Thioglycollate-induced peritoneal macrophages were obtained by peritoneal lavage of Balb c mice. Macrophages purified by adherence to plastic plate were cultured in a supplemented RPMI medium and pre-treated with CEE-1, CEE-2 or their solvent (DMSO) for 30 minutes before being stimulated with LPS (1 μg/mL) for 18 hours. The amount of TNF-α released into the supernatant was determined by ELISA using commercially available kits.
FIG. 4 illustrates the inhibitory effect of CEE-1 and CEE-2 on the release of TNF-α from LPS-stimulated mouse peritoneal macrophages. Cells were pre-treated with the drugs for 30 minutes before stimulation with LPS (1 μg/mL). The net uninhibited releases were in the range of 130-185 pg/ml. Values are shown as mean±SD, n=3.
For orientation: ELISA stands for enzyme-linked immunosorbent assay.

The test system of data set [3] is RBL-2H3 mast cells.
Data set [4] deals with human peripheral blood eosinophils. Briefly: viability of eosinophils at concentrations that abolished EPO release. Format: cell-based. An excerpt: In untreated cells, C5a induced the release of 20-30% of the total cellular content of EPO.
Data set [5] has the same test system. Briefly: complement C5a-stimulated degranulation (EPO release) of human eosinophils. The data set is classed as cell-based. As to conditions: for IC50: C5a (30 nM) + cytochalasin B, 10 min pre-incubation, 30 min at 37° C., read-out: concentration achieving 50% inhibition of EPO release; for effect on EPO release at high concentration: at the concentrations of 300 nM and above. The procedure: Example 1 involves the testing of the effect of complement C5a-induced degranulation of human blood eosinophils, and IgE-dependent degranulation of mast cells. Human peripheral blood eosinophils were purified to >98% by the immunomagnetic method. Aliquots containing 2.5×10^4 cells were added to each well of a 96-well microplate. The cells were separately pre-incubated for 10 minutes with CEE-1, CEE-2 or the drug solvent (DMSO) and then subsequently stimulated with recombinant human complement C5a (30 nM) in the presence of cytochalasin B (5 μg/mL). The reaction was allowed to proceed for 30 minutes at 37° C. The amount of the granular eosinophil peroxidases (EPO) released into the supernatant (as index of degranulation) was determined by the o-phenylenediamine method. The amount of EPO released was expressed as a percentage of the total cell content.
Cells were incubated with the each of CEE-1 and CEE-2 for 10 minutes before stimulation. Control uninhibited releases were in the range of 20-30% of total cell content. Results are shown as mean±SD, n=4.

Data set [6] deals with RBL-2H3 mast cells. The data set is described as follows: antigen induced IgE-mediated degranulation (β-hexoseaminidase release) of mast cells (RBL-2H3). The data set is classed as cell-based, rat. As to conditions: anti-DNP IgE sensitized, DNP-BSA 100 ng/mL, 10 min pre-treatment; read-out: concentration achieving 50% inhibition of β-hexoseaminidase release. The procedure: The anti-allergic effect was tested on IgE-dependent mast cell degranulation using the rat basophilic leukemia (RBL-2H3) cell line model. The cells were passively sensitized with 0.5 μg/mL anti-DNP monoclonal IgE antibody for 1 hour, and then washed twice to remove unbound antibody. They were then separately pre-treated with CEE-1, CEE-2 or their solvent (DMSO) for 10 minutes before being stimulated with the specific antigen DNP-BSA (100 ng/mL). After 30 minutes of incubation, the amount of granular β-hexoseaminidase released into the supernatant (index of degranulation) was determined photometrically.
FIG. 3 illustrates the inhibition of antigen induced IgE-mediated degranulation (β-hexoseaminidase release) of mast cells (RBL-2H3) by CEE-1 and CEE-2. Cells were incubated with CEE-1 and CEE-2 for 10 minutes before stimulation. Control uninhibited releases were in the range of 15-26% of total cell content. Results are shown as mean±SD, n=3.

Regarding `CCOC(=O)C1C(=O)C=C(NNc2ccccc2)CC1c1ccccc1` (stereo not shown) [CEE-1, ethyl 4-phenylhydrazinocyclohex-3-en-2-oxo-6-phenyl-1-oate], the “viability of the cells” value in data set [1] was “no effect on their viability”; in data set [4] it was “did not significantly affect the viability of the cells”. The IC50 is 0.08 µM in data set [2], 0.045 µM in data set [5] and 0.8 µM in the data set on RBL-2H3 mast cells [6]. Also, the “effect on TNF-α release at 10 μM” value in data set [2] is reported as “completely abolished the release”. Moreover, in the data set on RBL-2H3 mast cells [3], the “cellular toxicity (trypan blue exclusion test)” value is “no cellular toxicity”. Moreover, in data set [5], the “effect on EPO release at high concentration” value is listed as “completely abolished EPO release”.
On to `COC(=O)C1C(=O)C=C(NNc2ccccc2)CC1c1ccccc1` (stereo not shown) [CEE-2, methyl 4-phenylhydrazinocyclohex-3-en-2-oxo-6-phenyl-1-oate], for which the “viability of the cells” value in data set [1] was “no effect on their viability”; in data set [4], “did not significantly affect the viability of the cells”. Besides, the IC50 came out at 0.082 µM in data set [2], 0.094 µM in data set [5] and 1.2 µM with RBL-2H3 mast cells [6]. In addition, the “effect on TNF-α release at 10 μM” value in data set [2] is given as “completely abolished the release”. For the same compound, the “cellular toxicity (trypan blue exclusion test)” value with RBL-2H3 mast cells [3] is listed as “no cellular toxicity”. Also, the “effect on EPO release at high concentration” value in data set [5] is “completely abolished EPO release”.
